The values below come from patent US20250152591A1, “TREATMENT OF HEMATOLOGICAL MALIGNANCIES WITH MENIN INHIBITORS AND P-GLYCOPROTEIN INHIBITORS” (Kura Oncology, Inc., priority 2022, published 2025).

Where two headings read alike, the source gives them in different places.

In one data set the test system is OCI-AML3-PGP cell line. Description: Cell viability assay, OCI-AML3-PGP. It counts as cell-based. Further details: unit of the concentration uncertain. The note with it: 168 h, 7 days. Here is the method:
(§1) A third set of experiments was conducted in the cell line OCI-AML3, which carries the W288Cfs*12 mutation in NPM protein. The P-gp expressing OCI-AML3 cell line (OCI-AML3-PGP) and the Luciferase expressing OC-AML3 cell line (OCI-AML3-Control) were established by lentivirally transducing P-gp ORF or Luciferase ORF. Cells were treated with Compound I or SNDX-5613 for 7 days to assess the IC50 values.

A further data set addresses P-gp (Homo sapiens, UniProt P08183). Description: in vitro. The note with it: MDCK-MDR1, pH 7.4. Here is the method: MDCK epithelial cells stably transfected with the human MDR1 gene (the gene encoding for the efflux protein P-gp) were seeded on a Multiscreen™ plate (Millipore, MA, USA) and formed a confluent monolayer over 4 days prior to the experiment. To verify the MDR1-MDCK cell monolayers were properly formed, aliquots of the cell buffers were analyzed by fluorescence to determine the transport of the impermeable dye Lucifer Yellow. Any deviations from control values are reported.
MDR1-MDCK cells were incubated with these buffers for 2 h, and the receiver side buffer was removed for analysis by LC-MS/MS.
The rate of passage of the test compounds through this cell monolayer barrier from apical to basolateral (A→B) in this bi-directional transport assay was used to determine the apparent permeability coefficient (Papp). Receiver, donor, and dosing solution concentrations were quantified using a calibration curve prepared in transport buffer solution (pH 7.4). Papp is calculated as
where dQ/dt is rate of permeation, C0 is initial concentration of test agent, and A is the area of monolayer (0.11 cm^2). The basolateral to apical (B→A) to apical to basolateral (A→B) apparent permeability coefficient ratio
When RE>2 for a tested compound, the tested compound is a potential substrate for P-gp.
Rantinidine, talinolol, warfarin, and loperamide (±2 μM elacridar) were tested as reference compounds and each was tested at a concentration of 10 μM.

For data set [1], the system named is OCI-AML3-Control cell line. Put plainly: Cell viability assay, OCI-AML3-Control. It is filed as cell-based. Further details: unit of the concentration uncertain. As to conditions: 168 h, 7 days. Here is the method:
as §1

The next data set deals with MOLM13-Control cell line. Description: Cell viability assay, MOLM13-Control. Further details: unit of the concentration uncertain. It counts as cell-based. As to conditions: 168 h, 7 days. Here is the method:
The effects described above were investigated in an AML cell line, MOLM-13, which carries a KA4T2A (MLL)-rearrangement mutation. The P-gp expressing MOLM-13 cell line (MOLM13-PGP) and the Luciferase expressing MOLM-13 cell line (MOLM13-Control) were established by lentivirally transducing P-gp ORF or Luciferase ORF. Cells were plated and treated with test compound for 7 days.

Data set [2] deals with MV4;11 parental cell line. Put plainly: CellTiter-Glo cell viability assay, MV4;11 parental. It counts as cell-based. The note with it: Homo sapiens, MV4-11, 144 h; Compound I only, 0 to 1000 nM, 6 days, Table 3. Here is the method: The influence of efflux pumps on the antitumor activity of the test compounds at steady state (more clinically relevant) were evaluated using P-gp-transfected AML cells (MV4;11 cells) in 6-day viability assays.
A P-gp-expressing KMT2A(MLL)-rearranged cell line model was developed by lentiviral transduction of the MV4;11 parental cell line and then selection for either Luciferase ORF (MV4;11-Control) or P-gp ORF (MV4;11-PGP).
The MV4;11 parental, MV4;11-Control, and MV4;11-PGP cells were seeded on a 96-well plate and the cell lines were treated with Compound I at doses ranging from 0 to 1000 nM for 6 days. Cell viability was measured by CellTiter-Glo® Luminescent Cell Viability Assay (CTG assay, Promega Corp.) and % Viability was quantified by normalizing to the luminescence values of DMSO-only treated cells. The dose-response curves and IC50's were calculated using GraphPad Prism 9.4.1.

Sequence of P-gp (P08183 whole entry): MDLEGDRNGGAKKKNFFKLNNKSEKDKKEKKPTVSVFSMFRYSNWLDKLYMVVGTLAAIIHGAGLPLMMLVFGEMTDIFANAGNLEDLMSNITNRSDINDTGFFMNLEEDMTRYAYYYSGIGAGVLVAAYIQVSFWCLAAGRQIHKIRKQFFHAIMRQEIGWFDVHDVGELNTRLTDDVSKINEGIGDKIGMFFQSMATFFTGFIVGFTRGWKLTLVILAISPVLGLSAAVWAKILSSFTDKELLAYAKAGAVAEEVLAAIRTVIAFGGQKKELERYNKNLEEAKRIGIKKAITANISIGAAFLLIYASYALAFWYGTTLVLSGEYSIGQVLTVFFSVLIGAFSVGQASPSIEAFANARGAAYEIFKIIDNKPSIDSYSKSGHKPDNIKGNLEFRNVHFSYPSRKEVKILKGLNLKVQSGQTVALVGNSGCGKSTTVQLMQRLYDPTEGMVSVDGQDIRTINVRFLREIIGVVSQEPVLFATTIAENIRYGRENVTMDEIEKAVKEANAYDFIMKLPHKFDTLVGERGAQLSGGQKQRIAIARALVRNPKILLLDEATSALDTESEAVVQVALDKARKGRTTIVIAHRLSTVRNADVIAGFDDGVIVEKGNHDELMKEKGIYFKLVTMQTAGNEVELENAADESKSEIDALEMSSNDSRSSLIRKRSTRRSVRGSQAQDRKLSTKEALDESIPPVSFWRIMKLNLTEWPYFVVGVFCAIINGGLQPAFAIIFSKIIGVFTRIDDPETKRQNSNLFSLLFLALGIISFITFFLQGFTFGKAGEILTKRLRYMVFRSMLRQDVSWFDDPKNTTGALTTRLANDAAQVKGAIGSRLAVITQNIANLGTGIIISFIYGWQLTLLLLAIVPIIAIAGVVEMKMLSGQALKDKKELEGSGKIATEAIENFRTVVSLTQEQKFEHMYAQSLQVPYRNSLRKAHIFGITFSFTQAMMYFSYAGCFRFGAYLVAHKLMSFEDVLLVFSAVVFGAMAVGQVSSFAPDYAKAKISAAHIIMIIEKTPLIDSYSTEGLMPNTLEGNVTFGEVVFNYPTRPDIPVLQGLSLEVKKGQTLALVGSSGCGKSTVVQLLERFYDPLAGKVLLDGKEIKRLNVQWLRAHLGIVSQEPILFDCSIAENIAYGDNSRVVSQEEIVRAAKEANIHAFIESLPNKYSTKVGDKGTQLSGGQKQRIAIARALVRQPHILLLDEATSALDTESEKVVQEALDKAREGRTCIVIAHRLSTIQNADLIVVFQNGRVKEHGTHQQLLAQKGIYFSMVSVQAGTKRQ

In the case of `CNc1nc(NC2CCN(Cc3ccc4c(cc(C#N)n4C[C@H](C)N4CCN(S(C)(=O)=O)CC4)c3C)CC2)c2cc(CC(F)(F)F)sc2n1` [Compound I], the IC50 (usually the concentration needed to halve the response being measured) in the data set with OCI-AML3-PGP cell line (Table 9, read-out: IC50 OCI-AML3-PGP (Compound + DMSO)) is 38.9 nM; in the data set with OCI-AML3-PGP cell line (Table 10, read-out: IC50 OCI-AML3-PGP (Compound + DMSO)), 50.2 nM; in the data set on OCI-AML3-PGP cell line (posaconazole (0.75 (unit uncertain)), Table 9, read-out: IC50 OCI-AML3-PGP (Compound + posaconazole)), 19.2 nM; in the data set with OCI-AML3-PGP cell line (valspodar (1 (unit uncertain)), Table 10, read-out: IC50 OCI-AML3-PGP (Compound + valspodar)) it was 15.7 nM; in data set [1] (Table 9, read-out: IC50 OCI-AML3-Control (Compound + DMSO)) it was 16.4 nM; in data set [1] (Table 10, read-out: IC50 OCI-AML3-Control (Compound + DMSO)), 15.3 nM. Further, the IC50 stood at 17.7 nM in data set [1] (posaconazole (0.75 (unit uncertain)), Table 9, read-out: IC50 OCI-AML3-Control (Compound + posaconazole)); 19.2 nM in data set [1] (valspodar (1 (unit uncertain)), Table 10, read-out: IC50 OCI-AML3-Control (Compound + valspodar)); 23.7 nM with MOLM13-Control cell line (Table 7, read-out: IC50 MOLM13-Control (Compound + DMSO)); 27 nM with MOLM13-Control cell line (Table 8, read-out: IC50 MOLM13-Control (compound + DMSO)); 16.5 nM in the data set with MOLM13-Control cell line (posaconazole (1.5 (unit uncertain)), Table 7, read-out: IC50 MOLM13-Control (Compound + posaconazole)); 22.3 nM in the data set with MOLM13-Control cell line (valspodar (1 (unit uncertain)), Table 8, read-out: IC50 MOLM13-Control (Compound + valspodar)). The IC50 in data set [2] stood at 8.5 nM. Besides, the Papp A→B (usually how fast a substance crosses the layer from the apical side) at 2 h on P-gp was found to be 0.308 ×10⁻⁶ cm/s. Also, the Papp B→A (in general, how fast a substance crosses the layer from the basolateral side) at 2 h on P-gp is 1.84 ×10⁻⁶ cm/s.
